Source: US10627415B2, “Compositions and methods for diagnosing, monitoring, and treating an autoimmune disease” (BOARD OF TRUSTEES OF MICHIGAN STATE UNIVERSITY, priority 2015, dated 2020)
“And” between values parts separate entries of the source, which are not always exact repeats. Identical values can stand only once.

Tests used:
[1] = tested on: bovine pulmonary artery endothelial cells; assay: C-peptide binding to endothelial cells; format: cell-based; details: 1 hour at 37° C., 10 nM Zn2+ and C-peptide in DMEM containing serum
Protocol: Additional experiments were performed to determine whether a C-peptide facilitator can facilitate binding of C-peptide to cells expressing Glut1 other than RBCs. Endothelial cells (bovine pulmonary artery endothelial cells) were grown to confluency on 12-well tissue culture plates. When the cell reached confluency, they were incubated in Dulbecco's Modified Eagle Medium (DMEM) containing serum for 24 hours. Following incubation, the cells were washed and incubated for 1 hour at 37° C. in the presence of 10 nM Zn^2+ and C-peptide in DMEM containing serum. The endothelial cells were determined to have bound 2.0±0.1 attomoles of C-peptide per endothelial cell.

RBCs [2] = assay: C-peptide binding to RBCs, ELISA of supernatant (Example 2 protocol; hematocrit and storage variations); format: cell-based, human; details: for average C-peptide bound to the RBCs: 7% hematocrit, 20 nM C-peptide, 75 μM BSA (0.5%), 2 hours at 37° C.
Protocol: All samples were handled in an identical manner. Briefly, about 10 mL of blood was drawn from each donor; the RBCs were purified by centrifugation; and the RBCs were suspended in physiological salt solution (PSS). Then RBCs were combined with PSS (containing bovine serum albumin (BSA) as a C-peptide binding facilitator) and C-peptide to generate a mixture having a 7% hematocrit, 20 nM C-peptide, and 75 μM BSA (0.5%). The mixture was allowed to incubate for 2 hours at 37° C. Next, the samples were centrifuged to separate the cells from solution, the solution was diluted 1:50 with double distilled water, and the amount of C-peptide remaining in the solution was determined by ELISA. This provided a value corresponding to the moles of C-peptide bound to the RBCs. […] Whereas blood from the healthy controls bound an average of 1.99±0.32 pmoles C-peptide, blood from MS patients and OND patients bound averages of 3.51±0.59 pmoles of C-peptide and 2.23±0.51 pmoles of C-peptide, respectively. As shown by p values of less than 0.001, the increase in C-peptide binding relative to healthy controls and OND patients is significant.
Experiments were performed to determine the effect of hematocrit on C-peptide binding to RBCs. The experiment was conducted as described above in Experiment 2, except various hematocrits were tested. […] In general, increase the hematocrit results in a substantially linear increase in C-peptide binding when the RBCs are saturated with C-peptide.
Experiments were performed to determine the stability of the whole blood. The experiment was conducted as described above in Experiment 2, except the blood was stored in citrate tubes at 4° C. over a period of 4 days during the experiment. Only blood from healthy patients was tested.
(§1) Experiments were performed to determine the stability of supernatant generated after separating cells from solution as described in Experiment 2. The protocol of Experiment 2 was repeated on blood from healthy patients, but the supernatant was stored at 4° C. for from 1 to 3 days prior to determining C-peptide binding by the RBCs.
as §1, with “−20°” for “4°”, “C.” for “C. for”, “0 (day of draw)” for “1”, “6 weeks” for “3 days”

RBCs [3] = assay: C-peptide binding to RBCs (Example 1, supernatant subtraction); format: cell-based; details: RBCs of individual healthy controls; 20 picomoles human C-peptide, 75 micromolar albumin, 2 hours
Protocol: The amount of C-peptide binding to RBCs obtained from MS patients was compared to controls run on the same day. All samples were handled in an identical manner. Briefly, about 10 mL of blood were drawn from each donor; the RBCs were purified by centrifugation. Next, 20 picomoles of human C-peptide were added to a buffer containing 75 micromolar albumin. RBCs were added to this C-peptide and albumin-containing buffer and allowed to incubate for 2 hours. Next, the samples were centrifuged and the moles of C-peptide remaining in the supernatant are subtracted from the original amount added. This provided a value corresponding to the moles of C-peptide bound to the RBCs. […] Importantly, of the 25 MS patient samples analyzed, the values ranged from 2.7 to 4.8 picomoles of C-peptide bound to the RBCs, with 18 of the 25 above 3.2 picomoles. In comparison, one control was 3.1, another was 2.8; all others were below 2.45. Thus, separation exists between groups—approximately […] of bound C-peptide difference.

[4] = tested on: Neutrophils from healthy control patients; assay: C-peptide binding to neutrophils; format: cell-based, human; details: 20 nM C-peptide, 1 hour at 37° C.
Protocol: Neutrophils from healthy control patients were also tested. The neutrophils were isolated using techniques known in the art. Briefly, blood was drawn into a heparin-coated vacutainer. An equal volume of 3% Dextran was added to drawn whole blood in sterile 50 mL tubes. After inverting, the tubes were set upright for 30 minutes at room temperature to generate a plurality of layers. The top layer was aspirated and transferred to a new 50 mL tube and centrifuged at 500 g for 10 minutes at 4° C. The resulting top layer was discarded. The resulting pellet was resuspended in 10 mL 0.9% saline. After pooling suspensions together in a single tube, it was underplayed with 10 mL of hypaqu-ficoll and centrifuged at 800 g for 15 minutes at room temperature. The resulting liquid band was removed and the remainder was resuspended in 20 mL 0.2% saline and mixed. 20 mL of 1.6% saline was then added to the suspension and it was centrifuged at 250 g for 6 minutes at 4° C. The supernatant was removed and the pellet was suspended in PBS for use in experiments. The cells were counted and then incubated with 20 nM C-peptide for 1 hour at 37° C. to generate an incubated sample. The incubated sample was centrifuged and the amount of C-peptide in the supernatant was determined by ELISA. The neutrophils were determined to have bound 2.68 attomoles of C-peptide per neutrophil.

## C-peptide (EAEDLQVGQVELGGGPGAGSLQPLALEGSLQ; listed as Homo sapiens) [approximately 30 amino acid polypeptide that connects the A and B chain of mature insulin within the proinsulin molecule]
[1]
  C-peptide bound: 2.0±0.1 attomoles of C-peptide per endothelial cell
RBCs [2]; MS patients
  average C-peptide bound to the RBCs: 3.51 ± 0.59 pmol
RBCs [2]; OND patients
  average C-peptide bound to the RBCs: 2.23 ± 0.51 pmol
RBCs [2]; healthy blood stored in citrate tubes at 4° C., day 1
  C-peptide binding: 2.38 pmol
RBCs [2]; healthy blood stored in citrate tubes at 4° C., day 2
  C-peptide binding: 2.23 pmol
RBCs [2]; healthy blood stored in citrate tubes at 4° C., day 3
  C-peptide binding: 2.14 pmol
RBCs [2]; healthy blood stored in citrate tubes at 4° C., day 4
  C-peptide binding: 1.83 pmol
RBCs [2]; healthy blood, supernatant stored at 4° C., day 1
  C-peptide binding: 2.23 pmol
RBCs [2]; healthy blood, supernatant stored at 4° C., day 2
  C-peptide binding: 2.17 pmol
RBCs [2]; healthy blood, supernatant stored at 4° C., day 3
  C-peptide binding: 2.20 pmol
RBCs [2]; healthy blood, supernatant stored at −20° C., week 0 (day of draw)
  C-peptide binding: 2.45 pmol
RBCs [2]; healthy blood, supernatant stored at −20° C., week 1
  C-peptide binding: 2.48 pmol
RBCs [2]; healthy blood, supernatant stored at −20° C., week 3
  C-peptide binding: 2.30 pmol
RBCs [2]; healthy blood, supernatant stored at −20° C., week 6
  C-peptide binding: 2.34 pmol
RBCs [2]; healthy controls
  average C-peptide bound to the RBCs: 1.99 ± 0.32 pmol
RBCs [2]; healthy individuals that do not have MS
  C-peptide binding: about 1500 C-peptide molecules per cell
RBCs [2]; hematocrit 3.50%
  C-peptide binding by RBCs, Control: 1.18 pmol
  C-peptide binding by RBCs, MS: 1.63 pmol
RBCs [2]; hematocrit 7%
  C-peptide binding by RBCs, Control: 2.18 pmol
  C-peptide binding by RBCs, MS: 3.38 pmol
RBCs [2]; hematocrit 14%
  C-peptide binding by RBCs, Control: 4.78 pmol
  C-peptide binding by RBCs, MS: 6.25 pmol
RBCs [3]
  C-peptide bound to the RBCs: 3.1 and 2.8 and below 2.45
[4]
  C-peptide bound: 2.68 attomoles of C-peptide per neutrophil
